# Experimental data published in patent EP0995441A2, “Combination of compounds for treating erectile dysfunctions” (priority 1998, dated 2000).
# Where “and” joins values, the source holds several entries; their conditions need not be identical. Equal entries are not always repeated.
# Legend:
# [1] = system: Patienten mit Sildenafilresistenz; experiment: Clinical study: erection response after oral drug combination in patients not responding to sildenafil alone; type: in vivo
# Procedure: Überraschenderweise erwies sich in klinischen Studien, daß Patienten mit erektiler Impotenz (ED) nach Therapieversagen unter der Behandlung mit Sildenafil allein (ED-SN negativ nach Sildenafil-Therapie in einer Menge von 100 mg Sildenafil) mit der erfindungsgemäßen Medikamentenkombination erfolgreich therapierbar waren.
# Tabelle 1 zeigt die Wirkung einer Medikamentenkombination, bestehend aus Sildenafil und Midodrin der chemischen Strukturformel: [drawing 3] wobei die Sildenafil-Mengen von 10 bis 100 mg und die Midodrin-Mengen von 5 bis 25 mg variiert wurden.
# Bei 10 Patienten mit ED-SN im Alter zwischen 45 bis 65 Jahren ohne Nitropräparate und koronare Herzkrankheiten lag beispielsweise die Ansprechrate der Medikamentenkombination, bestehend aus 50 mg Sildenafil und 25 mg Midodrin bei 7 von 10 Patienten, wenn die Medikamentenkombination in Form von Zwei-Kompartment-Dragees gegeben wurde.
# Bei Gabe der Medikamentenkombination in einer üblichen Retard-Form gelang es, die Ansprechrate auf 8 von 10 Patienten zu erhöhen. Tabelle 1
# [2] = system: Sphincter internus und Sphincter externus; experiment: Endoscopic observation and fibre-optic pressure measurement in the prostatic urethra after injection into the corpora cavernosa; type: in vivo, Patienten mit Priapismus; details: Vergleichsgruppe with clinically sufficient erection after 100 mg Sildenafil
# Description: Diese pharmakologischen Veränderungen sind ein indirekter Hinweis auf die alterierte Gefäßabflußsituation im Funktionsbereich der angrenzenden Organe an die Corpora cavernosa.
# [3] = Sildenafil Monodosis 100 mg, control of the Retardform group
compound,measurement,setting,value
CCCc1nn(C)c2c(=O)[nH]c(-c3cc(S(=O)(=O)N4CCN(C)CC4)ccc3OCC)nc12 [Sildenafil],"Kontrolle, 1. REAKTION (INITIALPHASE): patients reacting out of 10",[1]; Sildenafil Monodosis 10 mg,0/10
same,"Kontrolle, 50% REAKTION: patients reacting out of 10",[1]; Sildenafil Monodosis 10 mg,0/10
same,"Kontrolle, MAXIMALE EREKTION: patients reacting out of 10",[1]; Sildenafil Monodosis 10 mg,0/10
same,"Kontrolle, 1. REAKTION (INITIALPHASE): patients reacting out of 10",[1]; Sildenafil Monodosis 50 mg,0/10 and 1/10
same,"Kontrolle, 50% REAKTION: patients reacting out of 10",[1]; Sildenafil Monodosis 50 mg,0/10
same,"Kontrolle, MAXIMALE EREKTION: patients reacting out of 10",[1]; Sildenafil Monodosis 50 mg,0/10
same,"Kontrolle, 1. REAKTION (INITIALPHASE): patients reacting out of 10",[1]; Sildenafil Monodosis 100 mg,1/10 and 0/10
same,"Kontrolle, 50% REAKTION: patients reacting out of 10",[1]; Sildenafil Monodosis 100 mg,1/10 and 0/10
same,"Kontrolle, MAXIMALE EREKTION: patients reacting out of 10",[1]; Sildenafil Monodosis 100 mg,0/10
same,"Kontrolle, 50% REAKTION: time",[1]; [3],105 min
same,"Kontrolle, MAXIMALE EREKTION: time",[1]; [3],120 min
same,Druckwerte im Bereich des Sphincter internus sowie des Sphincter externus,[2],keine vergleichbaren hohen Druckwerte
